Legend:
Format in all cases: binding
GmolCSP8-L30A = GmolCSP8-L30A (Grapholita molesta, UniProt A0A0M4FML8, L45A); assay: Titration of protein with fluorescent probe 1-NPN, mutant L30A
Experimental: (§1) To determine whether GmolCSP8 is involved in odorant binding, fluorescence competitive binding assays were performed ([Zhong et al., 2012]). The fluorescence spectra were recorded using a fluorescence spectrophotometer (F-4500, Hitachi, Tokyo, Japan) in a 1 cm light path fluorimeter quartz cuvette with 10 nm slits for excitation and 20 nm slits for emission. The selected chemicals are listed in Table 2, and included four sex pheromone components and 34 volatiles from different host plants (peach and pear trees) of G. molesta based on previous investigations ([Natale et al., 2004]; [Lu et al., 2012]; [Najar-Rodriguez et al., 2013b]). […] The fluorescent probe was excited at 337 nm and emission spectra were recorded from 370 to 550 nm. […] Dissociation constants (Kd) of protein to 1-NPN were calculated by non-linear regression, using GraphPad Prism 4.00 software (GraphPad Software Inc.). The inhibition constants (Ki) of the competitors were determined using the corresponding IC50 values (concentration of competitor that reduced the initial fluorescence intensity by half) based on the following equation: Ki = [IC50]/(1+[1-NPN]/K1-NPN), where [1-NPN] is the free concentration of 1-NPN and K1-NPN is the dissociation constant of the complex GmolCSP8/1-NPN. […]

rGmolCSP8 = rGmolCSP8 (Grapholita molesta, UniProt A0A0M4FML8); assay: Titration of protein with fluorescent probe 1-NPN, wild-type; details: wild-type rGmolCSP8, 2 μM protein, pH 7.4; read-out: Kd (dissociation constant) of 1-NPN
Sequence of rGmolCSP8 (A0A0M4FML8 entry or part of it): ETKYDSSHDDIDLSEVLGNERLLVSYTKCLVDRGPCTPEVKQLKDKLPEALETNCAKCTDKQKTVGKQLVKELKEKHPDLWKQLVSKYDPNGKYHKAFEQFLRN
Experimental: To determine whether GmolCSP8 is involved in odorant binding, fluorescence competitive binding assays were performed ([Zhong et al., 2012]). The fluorescence spectra were recorded using a fluorescence spectrophotometer (F-4500, Hitachi, Tokyo, Japan) in a 1 cm light path fluorimeter quartz cuvette with 10 nm slits for excitation and 20 nm slits for emission. The selected chemicals are listed in Table 2, and included four sex pheromone components and 34 volatiles from different host plants (peach and pear trees) of G. molesta based on previous investigations ([Natale et al., 2004]; [Lu et al., 2012]; [Najar-Rodriguez et al., 2013b]). […] The fluorescent probe was excited at 337 nm and emission spectra were recorded from 370 to 550 nm. […] Dissociation constants (Kd) of protein to 1-NPN were calculated by non-linear regression, using GraphPad Prism 4.00 software (GraphPad Software Inc.). The inhibition constants (Ki) of the competitors were determined using the corresponding IC50 values (concentration of competitor that reduced the initial fluorescence intensity by half) based on the following equation: Ki = [IC50]/(1+[1-NPN]/K1-NPN), where [1-NPN] is the free concentration of 1-NPN and K1-NPN is the dissociation constant of the complex GmolCSP8/1-NPN.
FIGURE 5 Binding curve and relative Scatchard plot of 1-NPN to rGmolCSP8. […] The calculated dissociation constant of rGmolCSP8 was 13.85 μM. […]

GmolCSP8-V40A = GmolCSP8-V40A (Grapholita molesta, UniProt A0A0M4FML8, V55A); assay: Titration of protein with fluorescent probe 1-NPN, mutant V40A
Sequence of GmolCSP8-V40A (A0A0M4FML8 entry or part of it V55A): as the sequence (A0A0M4FML8 entry or part of it) above, with V40A counted along it
Experimental: as §1

GmolCSP8-T27A = GmolCSP8-T27A (Grapholita molesta, UniProt A0A0M4FML8, T42A); assay: Titration of protein with fluorescent probe 1-NPN, mutant T27A
Sequence of GmolCSP8-T27A (A0A0M4FML8 entry or part of it T42A): as the sequence (A0A0M4FML8 entry or part of it) above, with T27A counted along it
Experimental: as §1

GmolCSP8-L80A = GmolCSP8-L80A (Grapholita molesta, UniProt A0A0M4FML8, L95A); assay: Titration of protein with fluorescent probe 1-NPN, mutant L80A
Sequence of GmolCSP8-L80A (A0A0M4FML8 entry or part of it L95A): as the sequence (A0A0M4FML8 entry or part of it) above, with L80A counted along it
Experimental: as §1

Sequence of GmolCSP8-L30A (A0A0M4FML8 entry or part of it L45A): as the sequence (A0A0M4FML8 entry or part of it) above, with L30A counted along it

Q: With `c1ccc(Nc2cccc3ccccc23)cc1` [1-NPN, N-phenyl-1-naphthylamine] as the molecule, how does the Kd (GmolCSP8-L30A) read?
A: The Kd was 14.4 µM.

Q: What about the Kd (rGmolCSP8) of the same molecule?
A: The Kd was 13.8 µM.

Q: What about the Kd (GmolCSP8-V40A) of the same molecule?
A: Its Kd is 11.8 µM.

Q: And the Kd (GmolCSP8-T27A)?
A: Its Kd is 11.2 µM.

Q: What about the Kd (GmolCSP8-L80A) of the same molecule?
A: The Kd was 11.7 µM.

— publication PMC6516043, “Functional Analysis of the Chemosensory Protein GmolCSP8 From the Oriental Fruit Moth, Grapholita molesta (Busck) (Lepidoptera: Tortricidae)” (Frontiers in Physiology, 2019)
